In patent US6090945A, “Tetrahydro-beta-carbolines” (Eli Lilly and Company, priority 1998, dated 2000):
Counter-ions that a name gives are not always drawn. Like-named read-outs stand apart in the source and are kept apart here.

Tests used:
[1] = target: T1, 5-HT1c receptor (Bos taurus, UniProt A0AAA9SBU1); assay: 5-HT1c radioligand binding assay ([3H]mesulergine displacement); conditions: read-out: 5HT1C IC50 (binding displacement); choroid plexus; tritiated mesulergine 2.0 nM; 37° C., 15 minutes
T1 sequence (A0AAA9SBU1 33-457): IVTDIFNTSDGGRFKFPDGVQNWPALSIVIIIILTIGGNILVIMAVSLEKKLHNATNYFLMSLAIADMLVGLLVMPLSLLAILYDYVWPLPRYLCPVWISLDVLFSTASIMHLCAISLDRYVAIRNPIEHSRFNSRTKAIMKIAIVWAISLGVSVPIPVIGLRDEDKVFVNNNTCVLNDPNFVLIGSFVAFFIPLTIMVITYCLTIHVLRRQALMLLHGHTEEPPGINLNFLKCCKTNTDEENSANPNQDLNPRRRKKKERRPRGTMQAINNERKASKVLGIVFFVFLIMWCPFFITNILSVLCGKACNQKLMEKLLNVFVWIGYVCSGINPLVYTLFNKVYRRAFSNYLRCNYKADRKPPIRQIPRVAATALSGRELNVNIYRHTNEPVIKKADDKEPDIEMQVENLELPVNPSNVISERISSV
Procedure: I. Assay for 5-HT1c Affinity
(§1) Beef brain was removed immediately after slaughter, and choroid plexus were dissected over ice. […] Tissues were homogenized in 9 volumes of 0.32 mol/L sucrose and centrifuged at 1,000×g for 10 minutes. The supernatant was centrifuged at 17,000×g for 20 minutes. The pellet was suspended in 100 volumes of 50 mM Tris-HCl (pH7.4), incubated at 37° C. for 10 minutes and centrifuged at 50,000×g for 10 minutes, and the process was repeated three times. The final pellets were frozen at -70° C. and used within 2 weeks. Pellets were rehydrated with physiological buffer prior to use.
(§2) The reactions were terminated by rapid filtration, (Brandel Cell Harvestor), through Whatman GF/B glass filters that had been presoaked in Tris buffer pH 7.4. The filters were then washed 2 times with 5 ml of ice cold Tris buffer pH 7.4. Washed filters were placed in scintillation vials and 10 ml RedySolv, (Brandel), was added and samples were counted in a Searle D-300 beta counter. Means and standard error statistics were calculated for triplicate experimental determinations in certain cases. Mean values were obtained from three or more separate determinations. The incubation time for the reaction mixture was 15 minutes at 37° C.

[2] = target: 5-HT2 receptor (Rattus norvegicus, UniProt P14842); assay: 5-HT2 radioligand binding assay ([3H]ketanserin displacement); design: species or system rat (Sprague-Dawley cerebral cortex)
[3] = system: 5-HT1c receptor; assay: 5-HT1c radioligand binding assay ([3H]mesulergine displacement); conditions: versus 5-HT2, as shown by Table II
Procedure: I. Assay for 5-HT1c Affinity
as §1, §2

[4] = rat cerebral cortex, tritiated ketanserin 1 nM, 37° C., read-out: 5HT2 IC50 (binding displacement)

5-HT2 receptor, sequence (P14842 whole entry): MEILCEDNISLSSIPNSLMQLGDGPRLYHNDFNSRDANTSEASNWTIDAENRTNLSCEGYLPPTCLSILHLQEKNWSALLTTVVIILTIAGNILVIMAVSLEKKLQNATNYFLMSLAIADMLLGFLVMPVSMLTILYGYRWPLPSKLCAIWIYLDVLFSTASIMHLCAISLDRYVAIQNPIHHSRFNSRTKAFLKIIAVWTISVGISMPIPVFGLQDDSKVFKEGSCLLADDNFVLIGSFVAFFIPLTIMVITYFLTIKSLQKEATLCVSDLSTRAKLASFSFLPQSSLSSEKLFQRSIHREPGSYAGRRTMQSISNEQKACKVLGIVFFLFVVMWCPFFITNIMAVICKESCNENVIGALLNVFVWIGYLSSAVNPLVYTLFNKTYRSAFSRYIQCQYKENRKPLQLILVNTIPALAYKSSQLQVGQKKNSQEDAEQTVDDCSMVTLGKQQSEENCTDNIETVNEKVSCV

IC50 [1] [nM]	IC50 [2, 4] [nM]	SMILES	IC50 [2] [nM]	5-HT1c selectivity (low IC50 in 5-HT1c assay, higher IC50 in 5-HT2 assay) [3]
86	211	CCc1ccc2[nH]c3c(c2c1)CCN[C@H]3[C@H](C)c1ccc(OC)c(OC)c1 (relative stereo) [Example 42, (±) 6-ethyl-1-[(3,4-dimethoxyphenyl)-1-ethyl]-1,2,3,4-tetrahydro-9H-pyrido[3,4-b]indole (Z)-2-butenedioate]	–	–
213	310	COc1ccc(CC2NCCc3c2[nH]c2c(C)cccc32)cc1OC (stereo not shown) [Example 1, 8-methyl-1-[(3,4-dimethoxyphenyl)methyl]-1,2,3,4-tetrahydro-9H-pyrido[3,4-b]indole]	–	–
237	255	COc1ccc(CC2NCCc3c2[nH]c2c(OC)cccc32)cc1OC (stereo not shown) [Example 5, 8-methoxy-1-[(3,4-dimethoxyphenyl)methyl]-1,2,3,4-tetrahydro-9H-pyrido[3,4-]indole]	–	–
22	> 100	COc1ccc(CC2NCCc3c2[nH]c2ccc(C(C)(C)C)cc32)cc1OC (stereo not shown) [Example 8, 6-(1,1-dimethylethyl)-1-[(3,4-dimethoxyphenyl)methyl]1,2,3,4-tetrahydro-1-9H-pyrido-[3,4b]indole hydrochloride]	–	–
18	141	COc1ccc(CC2NCCc3c2[nH]c2ccc(C)c(F)c32)cc1OC (stereo not shown) [Example 9, 5-fluoro-6-methyl-1-[(3,4-dimethoxyphenyl)-methyl]-1,2,3,4-tetrahydro-9H-pyrido[3,4-b]indole]	–	–
365	–	COc1ccc(CC2NCCc3c2[nH]c2ccc(C4CCCCC4)cc32)cc1OC (stereo not shown) [Example 11, 6-cyclohexyl-1-[(3,4-dimethoxyphenyl)-methyl]-1,2,3,4-tetrahydro-9H-pyrido[3,4-b]indole hydrochloride]	> 1000	–
15	> 100	COc1ccc(CC2NCCc3c2[nH]c2c(C)ccc(C)c32)cc1OC (stereo not shown) [Example 12, 5,8-dimethyl-1,2,3,4-tetrahydro-1-[(3,4-dimethoxyphenyl)methyl]-9H-pyrido[3,4b]indole hydrochloride]	–	–
34	> 100	COc1ccc(CC2NCCc3c2[nH]c2c(C)cc(C)cc32)cc1OC (stereo not shown) [Example 14, 6,8-dimethyl-1,2,3,4-tetrahydro-1-[(3,4-dimethoxyphenyl)methyl]-9H-pyrido[3,4b]indole hydrochloride]	–	–
73	286	CCc1ccc2[nH]c3c(c2c1)CCNC3Cc1ccc(OC)c(OC)c1 (stereo not shown) [Example 17, 6-ethyl-1,2,3,4-tetrahydro-1-[(3,4-dimethoxyphenyl)methyl]-9H-pyrido[3,4b]indole]	–	–
119	287	COc1ccc(CC2NCCc3c2[nH]c2ccc(Br)cc32)cc1OC (stereo not shown) [Example 18, 6-bromo-1,2,3,4-tetrahydro-1-[(3,4-dimethoxyphenyl)methyl]-9H-pyrido[3,4b]indole]	–	–
21	> 100	COc1ccc(CC2NCCc3c2[nH]c2c(C)c(C)ccc32)cc1OC (stereo not shown) [Example 19, 7,8-dimethyl-1,2,3,4-tetrahydro-1-[(3,4-dimethoxyphenyl)methyl]-9H-pyrido[3,4b]indole hydrochloride]	–	–
404	–	COc1cc(CC2NCCc3c2[nH]c2ccc(C)cc32)cc([N+](=O)[O-])c1OC (stereo not shown) [Example 28, 6-methyl-1-[(3,4-dimethoxy-5-nitrophenyl)-methyl]-1,2,3,4-tetrahydro-9H-pyrido[3,4-b]indole hydrochloride]	1000	–
257	1010	COc1cc(CC2NCCc3c2[nH]c2ccc(C)cc32)cc(I)c1OC (stereo not shown) [Example 29, 6-methyl-1-[(3-iodo-4,5-dimethoxy-phenyl)-methyl]-1,2,3,4-tetrahydro-9H-pyrido[3,4-b]indole]	–	–
224	–	COc1cc(CC2NCCc3c2[nH]c2ccc(C)cc32)cc(N)c1OC (stereo not shown) [Example 30, 6-methyl-1-[(3,4-dimethoxy-5-amino-phenyl)-methyl]-1,2,3,4-tetrahydro-9H-pyrido[3,4-b]indole dihydrochloride]	792	–
107	385	CCCOc1ccc(CC2NCCc3c2[nH]c2ccc(C)cc32)cc1OC (stereo not shown) [Example 31, 6-methyl-1-[(3-methoxy-4-propoxyphenyl)-methyl]-1,2,3,4-tetrahydro-9H-pyrido[3,4-b]indole]	–	–
498	–	Cc1ccc2[nH]c3c(c2c1)CCNC3CC1CCCCC1 (stereo not shown) [Example 39, 6-methyl-1-(cyclohexylmethyl)-1,2,3,4-tetrahydro-9H-pyrido[3,4-b]indole hydrochloride]	620	–
386	–	COc1ccc(CC2c3[nH]c4ccc(C)cc4c3CCN2C)c(Cl)c1OC (stereo not shown) [Example 44, 2,6-dimethyl-1-[(2-chloro-3,4-dimethoxyphenyl)methyl]-1,2,3,4-tetrahydro-9H-pyrido[3,4-b]indole hydrochloride]	–	–
452	–	COc1ccc(CC2c3[nH]c4ccc(C(C)C)cc4c3CCN2C)cc1OC (stereo not shown) [Example 45, 2-methyl-6-(1-methylethyl)-1,2,3,4-tetrahydro-1-[(3,4-dimethoxyphenyl)methyl]-9H-pyrido-[3,4b]indole maleate]	–	–

SMILES	IC50 [1] [nM]	IC50 [2, 4] [nM]	IC50 [2] [nM]	5-HT1c selectivity (low IC50 in 5-HT1c assay, higher IC50 in 5-HT2 assay) [3]
COc1ccc(CC2NCCc3c2[nH]c2c(Br)cccc32)cc1OC (stereo not shown) [Example 2, 8-bromo-1-[(3,4-dimethoxyphenyl)methyl]-1,2,3,4-tetrahydro-9H-pyrido[3,4-b]indole hydrochloride]	34	–	67	–
COc1ccc(CC2NCCc3c2[nH]c2c(Br)cc(Br)cc32)cc1OC (stereo not shown) [Example 3, 6,8-dibromo-1-[(3,4-dimethoxyphenyl)methyl]-1,2,3,4-tetrahydro-9H-pyrido[3,4-b]indole]	29	900	–	particularly 5-HT1c selective
COc1ccc(CC2NCCc3c2[nH]c2c(Br)cc(C)cc32)cc1OC.Cl (stereo not shown) [Example 4, 6-methyl-8-bromo-1-[(3,4-dimethoxyphenyl)-methyl]-1,2,3,4-tetrahydro-9H-pyrido[3,4-b]indole hydrochloride]	20	–	132	particularly 5-HT1c selective
COc1ccc(CC2NCCc3c2[nH]c2ccc(C)cc32)cc1OC (stereo not shown) [Example 20, 6-methyl-1,2,3,4-tetrahydro-1-[(3,4-dimethoxyphenyl)methyl]-9H-pyrido[3,4b]indole hydrochloride]	100	129	–	–
COc1cc(CC2NCCc3c2[nH]c2ccc(C)cc32)cc(OC)c1OC (stereo not shown) [Example 21, 6-methyl-1-[(3,4,5-trimethoxyphenyl)-methyl]-1,2,3,4-tetrahydro-9H-pyrido[3,4-b]indole hydrochloride]	83	–	1080	–
COc1ccccc1CC1NCCc2c1[nH]c1ccc(C)cc21 (stereo not shown) [Example 23, 6-methyl-1-[(2-methoxyphenyl)methyl]-1,2,3,4-tetrahydro-9H-pyrido[3,4-b]indole hydrochloride]	57	–	–	–
COc1ccc(CC2NCCc3c2[nH]c2ccc(C)cc32)c(OC)c1 (stereo not shown) [Example 24, 6-methyl-1-[(2,4-dimethoxyphenyl)methyl]-1,2,3,4-tetrahydro-9H-pyrido[3,4-b]indole hydrochloride]	17	–	74	–
COc1ccc(OC)c(CC2NCCc3c2[nH]c2ccc(C)cc32)c1 (stereo not shown) [Example 25, 6-methyl-1-[(2,5-dimethoxyphenyl)methyl]-1,2,3,4-tetrahydro-9H-pyrido[3,4-b]indole hydrochloride]	79	–	–	–
COc1cc(OC)c(OC)cc1CC1NCCc2c1[nH]c1ccc(C)cc21 (stereo not shown) [Example 26, 6-methyl-1-[(2,4,5-trimethoxyphenyl)-methyl]-1,2,3,4-tetrahydro-9H-pyrido[3,4-b]indole hydrochloride]	53	–	–	–
COc1ccc(CC2NCCc3c2[nH]c2ccc(C)cc32)cc1F (stereo not shown) [Example 34, 6-methyl-1-[(3-fluoro-4-methoxyphenyl)-methyl]-1,2,3,4-tetrahydro-9H-pyrido[3,4-b]indole hydrochloride]	95	–	250	–
Cc1ccc2[nH]c3c(c2c1)CCNC3Cc1ccc(C)c(C)c1 (stereo not shown) [Example 35, 6-methyl-1-[(3,4-dimethylphenyl)methyl]-1,2,3,4-tetrahydro-9H-pyrido[3,4-b]indole hydrochloride]	61	–	> 100	–
COc1ccc(CC2NCCc3c2[nH]c2ccc(C)cc32)c(Cl)c1OC (stereo not shown) [Example 36, 6-methyl-1-[(2-chloro-3,4-dimethoxyphenyl)-methyl]-1,2,3,4-tetrahydro-9H-pyrido[3,4-b]indole hydrochloride]	57	–	100	–
COc1c(O)ccc(CC2NCCc3c2[nH]c2ccc(C)cc32)c1Cl (stereo not shown) [Example 37, 6-methyl-1-[(2-chloro-3-methoxy-4-hydroxyphenyl)methyl]-1,2,3,4-tetrahydro-9H-pyrido[3,4-b]-indole hydrochloride]	29	–	100	–
COc1ccc(CC2NCCc3c2[nH]c2ccc(C)c(F)c32)c(Cl)c1OC (stereo not shown) [Example 38, 5-fluoro-6-methyl-1-[(2-chloro-3,4-dimethoxyphenyl)methyl]-1,2,3,4-tetrahydro-9H-pyrido[3,4-b]indole hydrochloride]	11	–	> 100	–
